pIC50: −log10 of the molar value.
Experiments:
CDK2/Cyclin E1 [1] = biological target: T1, CDK2/Cyclin E1 (Homo sapiens, UniProt P24941); assay: ADPGLO (CDK2/E1-37 C), ADP-Glo Luminescent Kinase Assay; type: biochemical; conditions: 0.18 nM CDK2/Cyclin E1, 100 μM ATP, Histone H1, 37° C.
T1 construct: purchased 14-475
Experimental: Inhibition of CDK2/Cyclin E1 activity by the presence of small molecules was evaluated using ADP-Glo Luminescent Kinase Assay (Promega). Activated CDK2/Cyclin E1 was incubated with its substrate Histone H1 (SignalChem H10-54N) in the kinase reaction buffer (100 μM ATP, 50 mM HEPES pH 7.5, 10 mM MgCl2, 1 mM EDTA, 2 mM DTT, 0.01% Brij35, 0.5 mg/mL BSA). Luminescence was recorded with an Envision plate reader (PerkinElmer).
Dose titrations of inhibitors in 100% DMSO were combined with 0.36 nM CDK2/Cyclin E1 in reaction buffer. The mixtures were incubated for 60 minutes at 37° C. before the addition of ATP and Histone H1 substrate to initiate the kinase reaction. The final conditions were 0.18 nM CDK2/Cyclin E1, 100 μM ATP, and 1.5 μM Histone H1. The reactions were incubated at 37° C. for 90 minutes before being stopped with the addition of ADP-Glo reagent. This mixture was incubated at room temperature for 60 minutes before Kinase Detection Solution is added to generate luminescence. The stopped reactions were analyzed on an Envision plate reader. The conversion ratios were normalized to yield % activity, plotted against compound concentration, and fit to a four-parameter equation to determine the IC50 for each compound.

Kuramochi cells = assay: IncuCyte Kuramochi Assay (cell proliferation); type: cell-based; conditions: 72 h, Kuramochi cells labeled with mApple-H2B, cell count, read-out: IncuCyte - Kuramochi RB-WT: IC50
Procedure, shortened: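 Cells imaged at 0 and 72 h after compound treatment (10 points, ½ log dilution, 20 μM top), with fluorescent nuclei counted. Fold change in count was normalized to DMSO wells and fitted to dose-response curves to give GI50.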

CDK2/Cyclin E1 [2] = biological target: T1, CDK2/Cyclin E1; assay: Caliper Assay (LabChip EZ Reader mobility shift assay), inhibition of CDK2/Cyclin E1 activity; type: biochemical; conditions: 2.5 nM CDK2/Cyclin E1(14-475), 100 μM ATP, 30 min preincubation; read-out: Caliper Assay (CDK2/CCNE1): IC50
Procedure, shortened: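 Compounds were preincubated 30 min with CDK2/Cyclin E1(14-475), then run for 100 min with 2.5 nM enzyme, 100 μM ATP and 1.5 μM 5-FAM-QSPKKG peptide in HEPES pH 7.5 (final). Reactions were EDTA-stopped and substrate-to-product conversion read by mobility shift. IC50 came from a four-parameter fit.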

Row | SMILES | pIC50 (CDK2/Cyclin E1 [1]) | pIC50 (Kuramochi cells) | pIC50 (CDK2/Cyclin E1 [2])
1 | O=C(c1cnn(Cc2cccc3c2CCNC3)c1)N1CC(c2nnc(C(F)(F)c3ccc(Cl)c(Cl)c3)o2)C2(C1)CN(C(=O)C1(C(F)(F)F)CC1)C2 (centres unmarked) [I-106] | < 5.00 | 5.00 to 5.30 | –
2 | O=C(c1cnc(O)cn1)N1CC(c2nnc(C(COCc3ccccc3)c3cccc(C4CCCCC4)c3)o2)C2(C1)CN(C(=O)C1(C(F)(F)F)CC1)C2 (centres unmarked) [I-107, (8-(5-(2-(benzyloxy)-1-(3-cyclohexylphenyl)ethyl)-1,3,4-oxadiazol-2-yl)-2-(1-(trifluoromethyl)cyclopropane-1-carbonyl)-2,6-diazaspiro[3.4]octan-6-yl)(5-hydroxypyrazin-2-yl)methanone] | ≥ 6.30 | 5.30 to 6.30 | –
3 | O=C(c1cnn(Cc2cccc3[nH]cnc23)c1)N1CC(c2nnc(C(F)(F)c3ccc(Cl)c(Cl)c3)o2)C2(C1)CN(C(=O)C1(C(F)(F)F)CC1)C2 (centres unmarked) [I-108, (1-((1H-benzo[d]imidazol-4-yl)methyl)-1H-pyrazol-4-yl)(8-(5-((3,4-dichlorophenyl)difluoromethyl)-1,3,4-oxadiazol-2-yl)-2-(1-(trifluoromethyl)cyclopropane-1-carbonyl)-2,6-diazaspiro[3.4]octan-6-yl)methanone] | 5.30 to 6.30 | 5.00 to 5.30 | –
4 | CC(c1nc(C2CN(C(=O)c3cnn(CC(=O)O)c3)CC23CN(C(=O)[C@H]2CC2(C)C)C3)no1)n1ccc(C2CCCC2)n1 (stereo partly drawn) [I-110, 2-(4-(8-(5-(1-(3-cyclopentyl-1H-pyrazol-1-yl)ethyl)-1,2,4-oxadiazol-3-yl)-2-((S)-2,2-dimethylcyclopropane-1-carbonyl)-2,6-diazaspiro[3.4]octane-6-carbonyl)-1H-pyrazol-1-yl)acetic acid] | 5.00 to 5.30 | < 5.00 | –
5 | CC(c1nc(C2CN(C(=O)c3cnn(Cc4nnnn4C)c3)CC23CN(C(=O)[C@H]2CC2(C)C)C3)no1)n1ccc(C2CCCC2)n1 (stereo partly drawn) [I-111, (8-(5-(1-(3-cyclopentyl-1H-pyrazol-1-yl)ethyl)-1,2,4-oxadiazol-3-yl)-2-((S)-2,2-dimethylcyclopropane-1-carbonyl)-2,6-diazaspiro[3.4]octan-6-yl)(1-((1-methyl-1H-tetrazol-5-yl)methyl)-1H-pyrazol-4-yl)methanone] | 5.30 to 6.30 | 5.00 to 5.30 | –
6 | O=C(c1cncs1)N1CC(c2nnc(C(F)(F)c3ccc(Cl)c(Cl)c3)o2)C2(CN(CC3CCCO3)C2)C1 (centres unmarked) [I-182, (8-(5-((3,4-dichlorophenyl)difluoromethyl)-1,3,4-oxadiazol-2-yl)-2-((tetrahydrofuran-2-yl)methyl)-2,6-diazaspiro[3.4]octan-6-yl)(thiazol-5-yl)methanone] | – | < 5.00 | < 5.00
7 | FC(F)(c1ccc(Cl)c(Cl)c1)c1nnc(C2CN(c3ncnc4ncsc34)CC23CN(c2ncccn2)C3)o1 (centres unmarked) [I-183, 2-((3,4-dichlorophenyl)difluoromethyl)-5-(2-(pyrimidin-2-yl)-6-(thiazolo[4,5-d]pyrimidin-7-yl)-2,6-diazaspiro[3.4]octan-8-yl)-1,3,4-oxadiazole] | – | < 5.00 | < 5.00
8 | O=C(c1cncs1)N1CC(c2nnc(C(F)(F)c3ccc(Cl)c(Cl)c3)o2)C2(C1)CN(c1ccccn1)C2 (centres unmarked) [I-184] | – | < 5.00 | < 5.00
9 | CC1(C)C[C@@H]1C(=O)N1CC2(CN(C(=O)c3cnc(C#N)s3)CC2c2nnc(C(F)(F)c3ccc(Cl)c(Cl)c3)o2)C1 (some centres unmarked) [I-185] | – | 5.00 to 5.30 | < 5.00
10 | O=C(c1cncs1)N1CC(c2nnc(C(F)(F)c3ccc(Cl)c(Cl)c3)o2)C2(C1)CN(C(=O)N1CCC1)C2 (centres unmarked) [I-186, Azetidin-1-yl(8-(5-((3,4-dichlorophenyl)difluoromethyl)-1,3,4-oxadiazol-2-yl)-6-(thiazole-5-carbonyl)-2,6-diazaspiro[3.4]octan-2-yl)methanone] | – | < 5.00 | < 5.00
11 | O=C(c1cncs1)N1CC(c2nnc(C(F)(F)c3ccc(Cl)c(Cl)c3)o2)C2(C1)CN(c1cccnn1)C2 (centres unmarked) [I-187, (8-(5-((3,4-dichlorophenyl)difluoromethyl)-1,3,4-oxadiazol-2-yl)-2-(pyridazin-3-yl)-2,6-diazaspiro[3.4]octan-6-yl)(thiazol-5-yl)methanone] | – | < 5.00 | < 5.00
12 | CC(C)(CO)C(=O)N1CC2(CN(C(=O)c3cncs3)CC2c2nnc(C(F)(F)c3ccc(Cl)c(Cl)c3)o2)C1 (centres unmarked) [I-189] | – | < 5.00 | 5.00 to 6.00
13 | CC(C)=CC(=O)N1CC2(C1)CN(C(=O)c1cncs1)CC2c1nnc(C(F)(F)c2ccc(Cl)c(Cl)c2)o1 (centres unmarked) [I-190] | – | < 5.00 | < 5.00
14 | O=C(c1cn[nH]c1)N1CC(c2nnc(C(F)(F)c3ccc(Cl)c(Cl)c3)o2)C2(C1)CN(C(=O)[C@H]1CC1(F)F)C2 (stereo partly drawn) [I-191, (8-(5-((3,4-dichlorophenyl)difluoromethyl)-1,3,4-oxadiazol-2-yl)-2-((R)-2,2-difluorocyclopropane-1-carbonyl)-2,6-diazaspiro[3.4]octan-6-yl)(1H-pyrazol-4-yl)methanone] | – | < 5.00 | 5.00 to 6.00
15 | CC1(C)C[C@@H]1C(=O)N1CC2(C1)CN(c1ncnc3ncsc13)CC2c1nnc(C(F)(F)c2ccc(Cl)c(Cl)c2)o1 (stereo partly drawn) [I-192, (8-(5-((3,4-dichlorophenyl)difluoromethyl)-1,3,4-oxadiazol-2-yl)-6-(thiazolo[4,5-d]pyrimidin-7-yl)-2,6-diazaspiro[3.4]octan-2-yl)((S)-2,2-dimethylcyclopropyl)methanone] | – | 5.00 to 5.30 | 5.00 to 6.00
16 | CC1(C)C[C@@H]1C(=O)N1CC2(CN(C(=O)c3cncs3)CC2c2cn(Cc3ccc(C4CC4)cc3)nn2)C1 (some centres unmarked) [I-193] | – | < 5.00 | 5.00 to 6.00
17 | CC1(C)C[C@@H]1C(=O)N1CC2(CN(C(=O)c3cncs3)CC2c2cn(Cc3ccc(C4(C(F)(F)F)CC4)cc3)nn2)C1 (some centres unmarked) [I-194] | – | < 5.00 | 6.00 to 7.00
18 | CC1(C)C[C@@H]1C(=O)N1CC2(CN(C(=O)c3cncs3)CC2c2cn(Cc3cccc(C(F)(F)F)c3)nn2)C1 (some centres unmarked) [I-195] | – | < 5.00 | 5.00 to 6.00
19 | CC(=O)N1CC2(C1)CN(C(=O)c1cncs1)CC2c1nnc(C(F)(F)c2ccc(Cl)c(Cl)c2)o1 (centres unmarked) [I-196] | – | < 5.00 | < 5.00
20 | O=C(c1cncs1)N1CC(c2nnc(Cc3ccc(Cl)c(Cl)c3)o2)C2(C1)CN(c1ccccn1)C2 (centres unmarked) [I-197, (8-(5-(3,4-dichlorobenzyl)-1,3,4-oxadiazol-2-yl)-2-(pyridin-2-yl)-2,6-diazaspiro[3.4]octan-6-yl)(thiazol-5-yl)methanone] | – | < 5.00 | < 5.00
21 | C=C(c1ccc(C(F)(F)c2nnc(C3CN(C(=O)c4cncs4)CC34CN(C(=O)[C@H]3CC3(C)C)C4)o2)cc1)C(F)(F)F (stereo partly drawn) [I-198, (8-(5-(difluoro(4-(3,3,3-trifluoroprop-1-en-2-yl)phenyl)methyl)-1,3,4-oxadiazol-2-yl)-2-((S)-2,2-dimethylcyclopropane-1-carbonyl)-2,6-diazaspiro[3.4]octan-6-yl)(thiazol-5-yl)methanone] | – | 5.30 to 6.30 | 7.00 to 8.00
22 | CC1(C)C[C@@H]1C(=O)N1CC2(CN(C(=O)c3cnc(Br)s3)CC2c2nnc(C(F)(F)c3ccc(Cl)c(Cl)c3)o2)C1 (some centres unmarked) [I-199] | – | 5.00 to 5.30 | < 5.00
23 | CC(=O)N1CC(c2nnc(C(F)(F)c3ccc(Cl)c(Cl)c3)o2)C2(C1)CN(C(=O)[C@H]1CC1(C)C)C2 (some centres unmarked) [I-200] | – | < 5.00 | < 5.00
24 | CC1(C)C[C@@H]1C(=O)N1CC2(CN(C(=O)c3cncs3)CC2c2ncc(Cc3ccc(C(F)(F)F)c(Cl)c3)o2)C1 (stereo partly drawn) [I-201, (8-(5-(3-chloro-4-(trifluoromethyl)benzyl)oxazol-2-yl)-2-((S)-2,2-dimethylcyclopropane-1-carbonyl)-2,6-diazaspiro[3.4]octan-6-yl)(thiazol-5-yl)methanone] | – | 5.00 to 5.30 | 6.00 to 7.00
25 | CC1(C)C[C@@H]1C(=O)N1CC2(CN(C(=O)c3cncs3)CC2c2cn(Cc3ccc(C(F)(F)F)cc3)nn2)C1 (some centres unmarked) [I-202] | – | < 5.00 | < 5.00
26 | O=C(CC(F)(F)F)N1CC(c2nnc(C(F)(F)c3ccc(Cl)c(Cl)c3)o2)C2(C1)CN(C(=O)CC(F)(F)F)C2 (centres unmarked) [I-203] | – | < 5.00 | < 5.00
27 | CC(=O)N1CC(c2nnc(C(F)(F)c3ccc(Cl)c(Cl)c3)o2)C2(C1)CN(C(C)=O)C2 (centres unmarked) [I-204] | – | < 5.00 | < 5.00
28 | O=C(N1CC(c2nnc(C(F)(F)c3ccc(Cl)c(Cl)c3)o2)C2(C1)CN(C(=O)C(F)(F)F)C2)C(F)(F)F (centres unmarked) [I-205, 1,1′-(8-(5-((3,4-dichlorophenyl)difluoromethyl)-1,3,4-oxadiazol-2-yl)-2,6-diazaspiro[3.4]octane-2,6-diyl)bis(2,2,2-trifluoroethan-1-one)] | – | 5.00 to 5.30 | < 5.00

From patent US20260151375A1, “CDK2 INHIBITORS AND METHODS OF USING THE SAME” (Cedilla Therapeutics, Inc., priority 2022, published 2026)
